# Reference: patent US4859584A (priority 1986, dated 1989)
# Residues, ends and D or L forms follow the SMILES beside them.
# Test system: V79 cells
# Details: not given
row,Compound,Cell doubling time / growth of labelled cells
1,CCCCCCCCCCCCCCN1C(=CC=Cc2oc3ccccc3[n+]2CCCCCCCCCCCCCC)Oc2ccccc21 [DiOC14 (3)],Cell doubling time was unaffected

# Test system: Yac cells
# Details: not given
Compound,Doubling [time] of Yac cells,Effect on cell doubling time (in words)
"O=S(=O)(O)CC(O)CNC(CO)(CO)CO (centres unmarked) [TAPSO, 3-[N-tris(hydroxymethyl)methylamino]-2-hydroxypropanesulfonic acid]",63.6,
"O=S(=O)(O)CCNC1CCCCC1 [CHES, 2-(N-cyclohexylamino)ethane sulfonic acid]",51.5,
N[C@H]1C(O)O[C@H](CO)[C@@H](O)[C@@H]1O (some centres unmarked) [Glucosamine],288.4,
"NC(=O)CNCCS(=O)(=O)O [ACES, 2-[(2-Amino-2-oxoethyl)amino]ethane sulfonic acid]",1038.4,
"O=S(=O)(O)CCCN1CCN(CCO)CC1 [EPPS, N-(2-Hydroxyethyl)piperazine-N-3-propanesulfonic acid]",32.2,negligible effects on cell doubling time
"O=S(=O)(O)CC(O)CN(CCO)CCO (centres unmarked) [DIPSO, 3-[N-N-bis(2-hydroxyethyl)amino]-2-hydroxypropane-sulfonic acid]",36.7,negligible effects on cell doubling time
NCC(=O)NCC(=O)O [Glycylglycine] (H-Gly-Gly-OH),66.9,
Phosphate Buffered Saline,31.0,
OC[C@H]1O[C@@](CO)(O[C@H]2O[C@H](CO)[C@@H](O)[C@H](O)[C@H]2O)[C@@H](O)[C@@H]1O [Sucrose],41.0,negligible effects on cell doubling time
"O=S(=O)(O)CCCNC(CO)(CO)CO [TAPS, Tris(hydoxymethyl)-methylaminopropane sulfonic acid]",32.7,negligible effects on cell doubling time
NCCCS(=O)(=O)O [3-Amino-1-propanesulfonic acid],99.6,
"O=S(=O)(O)CC(O)CN1CCOCC1 (centres unmarked) [MOPSO, 3-(N-morpholino)-2-hydroxypropane-sulfonic acid]",178.4,
"O=S(=O)(O)CC(O)CN1CCN(CCO)CC1 (centres unmarked) [HEPPSO, N-2-hydroxyethylpiperazine-N-2-hydroxypropane-sulfonic acid]",23.4,negligible effects on cell doubling time
"O=S(=O)(O)CCCNC1CCCCC1 [CAPS, 3-(Cyclohexylamino)-1-propanesulfonic acid]",45.8,negligible effects on cell doubling time
O=C[C@H](O)[C@@H](O)[C@H](O)[C@H](O)CO [Glucose],34.5,negligible effects on cell doubling time
"O=C(O)CN(CCO)CCO [BICINE, N,N-bis(2-hydroxyethyl)glycine]",57.7,

# Test system: rabbit red cells
# Details: in vivo
Compound,Effect on clearance rate of red blood cells,Lifetime of labelled red cells in circulation [days]
CCCCCCCCCCCCCCN1C(=CC=CC=Cc2sc3ccccc3[n+]2CCCCCCCCCCCCCC)Sc2ccccc21 [DiSC14 (5)],did not affect the clearance rate of red blood cells,52
